Where a SMILES comes first, the peptide text is derived from it.

Results on two compounds are retold here after paper PMC10125330 (ACS Bio & Med Chem Au, 2022).

Test [1] concerns the target T1, EV71-2A^pro (Human enterovirus 71, UniProt Q66478).
T1 sequence (Q66478 863-1012 limits assumed): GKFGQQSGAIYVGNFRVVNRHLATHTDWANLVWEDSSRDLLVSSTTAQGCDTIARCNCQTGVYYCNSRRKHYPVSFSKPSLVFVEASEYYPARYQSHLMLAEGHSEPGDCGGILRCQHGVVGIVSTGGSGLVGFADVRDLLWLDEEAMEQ
As to the kind of experiment: EV71-2Apro inhibition assay. Format: biochemical.

Test [2] deals with T1, EV71-2A^pro. As to the kind of experiment: Kinetic activity assay. It is filed as biochemical. To be noted: from Km values, relative to native substrate (Km 21.3 μM).

The IC50 is the concentration that gives 50% inhibition. Compound `CC[C@H](C)[C@H](NC(=O)[C@H](CCCCN)NC(=O)[C@H](CC(=O)O)NC(=O)[C@@H](N)CCCNC(=N)N)C(=O)NCC(=O)N[C@@H](Cc1ccccc1)C(=O)N[C@@H](CCCNC(=N)N)C(=O)NCC(=O)N[C@@H](CCCCN)C(=O)N[C@@H](Cc1ccccc1)C(=O)NCC(=O)N[C@@H](CCC(N)=O)C(=O)O` [Peptide II] (H-RDKIGFRGKFGQ-OH) returned an IC50 against EV71-2A^pro [1] of 12.1 ± 1.2 µM.

As for “Dabcyl-RDKIGFRGKFGQDE-Edans-NH2 [Pseudosubstrate II]”, the “higher affinity for EV71-2A^pro than the native substrate” value on EV71-2A^pro [2] is reported as 3 fold.
